Experimental data published in patent EP0364941A1, “Branched-chain alkyl esters of 2-(4-(2-piperidino ethoxy)benzoyl)benzoic acid, processes for their preparation and their use as spasmolytic agents” (HOECHST AKTIENGESELLSCHAFT, priority 1988, dated 1990).

Legend:
Porcine liver esterase = experiment: Enzymatic hydrolysis rates by porcine liver esterase; assay type: in vitro ADME; details: test compound 1 mM, pH 8.0, 37°C
Description: Porcine liver esterase (0.5 U = 2 µg) was preincubated in 40 mM Tris-HCl buffer, pH 8.0, at 37°C for 5 min. The reaction was initiated with the addition of the test compound (final concentration, 1 mM) in the final volume of 250 µl. Enzyme reaction was terminated at different time intervals by the addition of 60 µl of 1 M acetic acid. The solution was made alkaline (pH 10.5) by adding 0.4 M NaOH and the alkaline solution was rapidly extracted (three times) with 2.5 ml of chloroform. An aliquot of the aqueous supernatant was diluted with double distilled water and the absorbance was measured at 290 nm. Amount of test compound III (molar extinction = 14,400) formed was calculated.

small intestine = experiment: Gastrointestinal propulsion (charcoal transport) in mice; assay type: in vivo
Description: Ref.: J.M.A. Zwagemakers and V. Claassen, Arzneim-Forsch/-Drug Res. 30 (II) Nr.9, p.1517 (1980).
The test compounds I and II were given orally by gavage in a range of 10 to 100 mg/kg doses 30 min before charcoal suspension (0.2 ml/animal, 10% charcoal in 5% gum acacia) in 18 hrs fasted mice (male or female, weight range 18 to 25 g). 30 min after administration of charcoal animals were killed and the extent of charcoal propulsion in the small intestine was measured. The inhibitory activity of test compound on charcoal transport was assessed as percent inhibition compared to length of intestine. For control group 10 ml/kg of saline was given.

µmol test compound III formed per mg protein per ml (Porcine liver esterase; Time 0.0 hours): 0.00 µmol per mg protein per ml
µmol test compound III formed per mg protein per ml (Porcine liver esterase; Time 0.5 hours): 0.05 µmol per mg protein per ml
µmol test compound III formed per mg protein per ml (Porcine liver esterase; Time 2.0 hours): 0.10 µmol per mg protein per ml
µmol test compound III formed per mg protein per ml (Porcine liver esterase; Time 3.5 hours): 0.10 µmol per mg protein per ml
SMILES: CC(C)OC(=O)c1ccccc1C(=O)c1ccc(OCCN2CCCCC2)cc1.Cl [Test Compound II, Isopropyl-2-[4-(2-piperidino-ethoxy)-benzoyl]-benzoate hydrochloride]
Percent Inhibition (small intestine; 10 mg/kg p.o.): 38.0 ± 4.0%
Percent Inhibition (small intestine; 30 mg/kg p.o.): 41.0 ± 3.0%
Percent Inhibition (small intestine; 60 mg/kg p.o.): 46.0 ± 5.0%
